{"source": "patent US10406120B2", "about": "“Methods and compositions for treating kidney disorders” (Golden Biotechnology Corporation, priority 2013, dated 2019)", "key": {"[1]": {"assay": "FSGS model: urine protein and renal function (BUN, Cr)", "type": "in vivo, BALB/c mice", "conditions": "FSGS mice", "protocol": "(§1) Experiments described herein were performed on 8-week-old female BALB/c mice. The FSGS mice were injected intravenously with a single dose of adriamycin (0.1 mg/10 g body weight). The mice were given Compound 1 six hours before adriamycin injection by gavage daily till sacrifice. BALB/c mice intraperitoneal injected with normal saline were used as normal controls, while ASLN mice given vehicle (corn oil) by gavage were used as disease controls. Mice were killed at day 7, 14, or 21 after disease induction, and spleen, renal cortical tissue, and blood samples collected and stored appropriately until analysis. All animal experiments were performed with the ethical approval of the Institutional Animal Care and Use Committee of The National Defense Medical Center, Taiwan and performed according to the ethical rules in the NIH Guide for the Care and Use of Laboratory Animals.\nUrine samples were collected in metabolic cages at day 3, 7, 14, and 21, and urine protein was determined as described previously. (Shui, et al., Nephrol Dial Transplant, 21: 1794-1802, 2006) Serum samples were collected at day 7, 14, or 21 when mice were sacrificed to measure serum levels of BUN and Cr."}, "ROS": {"test_system": "ROS", "assay": "AcP-IgAN model: ROS levels", "type": "in vivo, B cell-deficient mice", "conditions": "AcP-IgAN mice", "protocol": "Kidney in-situ superoxide anion production was determined by DHE labeling according to the known method. (Wu, et al., Nephrol Dial Transplant, 2008, 23: 3082-3090, or Ka, et al., J. Am. Soc. Nephrol. 2007, 18:2473-2485) Fluorescent images were quantified by counting the percentage of positive nuclei in the total nuclei per kidney cross section. Sera and kidney tissues were assessed for superoxide anion according to the known method. (Wu, et al., J Pineal Res, 2001, 30: 147-156, or Ka, et al., J. Am. Soc. Nephrol. 2007, 18:2473-2485) For ROS levels of serum, urine, and renal tissue, the samples were incubated with Krebs-HEPES buffer, and lucigenin (Sigma-Aldrich Chemical Co, MO) at 1.25 mM was used as substrate. Luminescence counts were obtained in duplicate at 15 sec intervals by a microplate luminometer (Hidex Microplate Luminometer, Finland), as previously described (Kretzler, et al.,. Virchows Arch, 425: 181-193, 1994). The superoxide anion activity was expressed as relative luminescence units (RLU) per 15 min per mg of organ dry weight (i.e., RUL/15 min/mg) or RLU/15 min/ml.\n(§2) B cell-deficient mice (B6.129S2-Igh-6tm1Cgn/J) were obtained from the Academia Sinica (Professor John T. Kung, Institute of Molecular Biology), and maintained at the animal center of the National Defense Medical Center, Taipei, Taiwan. AcP-IgAN was induced in the mice by daily injection of purified IgA anti-phosphorylcholine antibodies and pneumococcal C-polysaccharide (PnC) as described previously (Chao, et al., Kidney Int. 70:283-297; 2006). All animal experiments were performed with the approval of the Institutional Animal Care and Use Committee of The National Defense Medical Center, Taiwan, and were consistent with the NIH Guide for the Care and Use of Laboratory Animals."}, "IL-6": {"test_system": "IL-6", "assay": "FSGS model: renal IL-6 (IHC)", "type": "in vivo, BALB/c mice", "conditions": "FSGS mice, vs control FSGS mice", "protocol": "as §1, with “All animal experiments were performed with the ethical approval of the Institutional Animal Care and Use Committee of The National Defense Medical Center, Taiwan and performed according to the ethical rules in the NIH Guide for the Care and Use of Laboratory Animals.” left out\n(§3) For IHC, formalin-fixed and paraffin-embedded renal sections were prepared and incubated with primary antibodies against mouse Desmin (Lab Vision, CA, USA), CD3 (pan-T cell; Serotec, N.C., USA), F4/80 (monocytes/macrophages; Serotec), IL-6 (R&D Systems, MN, USA), NF-κB p65 (Cell Signaling Technology, MA, USA), collagen I, III, and IV (Southern Biotech, AL, USA), or TGF-β1 (Santa Cruz Biotechnology, CA, USA), biotinylated second antibodies (Dako, Glostrup, Denmark), and avidin-biotin-peroxidase complex (Dako). Semi-quantitative evaluation of staining was performed."}, "desmin": {"test_system": "desmin", "assay": "FSGS model: podocyte injury, desmin IHC", "type": "in vivo, BALB/c mice", "conditions": "FSGS mice", "protocol": "as §1, with “All animal experiments were performed with the ethical approval of the Institutional Animal Care and Use Committee of The National Defense Medical Center, Taiwan and performed according to the ethical rules in the NIH Guide for the Care and Use of Laboratory Animals.” left out\nas §3"}, "[2]": {"assay": "AcP-IgAN model: renal histopathology", "type": "in vivo, B cell-deficient mice", "conditions": "AcP-IgAN mice", "protocol": "as §2\nFor renal histopathology, the tissues were fixed in 10% buffered formalin and embedded in paraffin, and then sections (4 μm) were prepared and stained with hematoxylin and eosin (H&E). The proportion of glomeruli showing proliferation, crescent formation, sclerosis, or peri-glomerular inflammation was counted in 50 randomly sampled glomeruli by light microscopy at the magnification of 400×."}, "NO": {"test_system": "NO", "assay": "FSGS model: NO determination", "type": "in vivo, BALB/c mice", "conditions": "FSGS mice", "protocol": "as §1\nNO levels in serum were detected with NO Detection kit (iNtRON Biotechnology, Seongnam, Korea), based on diazotization (Griess method), according to the manufacturer's instructions."}, "[3]": {"conditions": "based on a previous study and empirical use (Chang et al. 2008); cited from earlier work"}, "[4]": {"conditions": "50 mg/kg by gavage daily, day 14 to day 21, vs control FSGS mice"}, "[5]": {"conditions": "day 7, among normal control, control FSGS and FSGS+Antroq mice"}, "[6]": {"conditions": "day 3, vs control AcP-IgAN mice"}, "[7]": {"conditions": "day 28, vs control AcP-IgAN mice"}}}
{"compound": "COC1=C(OC)[C@H](O)[C@H](C/C=C(\\C)CC/C=C(\\C)CCC=C(C)C)[C@@H](C)C1=O", "note": "[Compound 1, Antroquinonol]", "values": [{"measurement": "urine protein levels", "setting": "[1]; 50 mg/kg by gavage daily, day 7 to day 21, vs control FSGS mice (vehicle)", "result": "greatly suppressed"}, {"measurement": "serum levels of blood urea nitrogen (BUN)", "setting": "[1]; [4]", "result": "much better renal function"}, {"measurement": "serum levels of creatinine (Cr)", "setting": "[1]; [4]", "result": "much better renal function"}, {"measurement": "serum levels of BUN", "setting": "[1]; [5]", "result": "no significant difference"}, {"measurement": "serum levels of Cr", "setting": "[1]; [5]", "result": "no significant difference"}, {"measurement": "ROS levels in sera", "setting": "ROS; [6]", "result": "substantial reduction"}, {"measurement": "ROS levels in renal tissues", "setting": "ROS; [7]", "result": "substantial reduction"}, {"measurement": "ROS levels in sera", "setting": "ROS; [7]", "result": "substantial reduction"}, {"measurement": "ROS levels in urine", "setting": "ROS; [7]", "result": "substantial reduction"}, {"measurement": "renal protein expression levels of IL-6 (IHC)", "setting": "IL-6", "result": "significantly reduced"}, {"measurement": "expression of desmin (IHC)", "setting": "desmin; day 21, compared to normal control mice", "result": "mild desmin expression levels"}, {"measurement": "expression of desmin (IHC)", "setting": "desmin; days 14 and 21, vs control FSGS mice", "result": "significantly reduced"}, {"measurement": "renal histopathology", "setting": "[2]; [6]", "result": "significantly inhibited"}, {"measurement": "renal lesions (proliferation, crescents, sclerosis, peri-glomerular leukocyte infiltration, tubular atrophy; except glomerular immune deposits)", "setting": "[2]; [7]", "result": "substantially inhibited"}, {"measurement": "urine levels of NO", "setting": "NO; day 7, among normal control, FSGS+vehicle and FSGS+antroq mice", "result": "no detectable difference"}, {"measurement": "serum NO levels", "setting": "NO; day 7 to day 21, vs control FSGS mice", "result": "significantly suppressed"}, {"measurement": "urine NO levels", "setting": "NO; day 14 to day 21, vs control FSGS mice", "result": "effectively blunted"}, {"measurement": "effective range", "setting": "[3]", "result": "10-50 mg/kg body weight"}]}
